Test results from article PMC9003574 (ACS Pharmacology & Translational Science, 2022).
Like-named read-outs stand apart in the source and are kept apart here.

Columns and labels:
SARS-CoV-2 nsp13 [1] = target: T1, SARS-CoV-2 nsp13 (Severe acute respiratory syndrome coronavirus 2, UniProt P0DTD1); test: biochemical
SARS-CoV-2 nsp13 [2] = target: T1, SARS-CoV-2 nsp13; test: biochemical; assay type: biochemical; settings: for ATPase, percentage of control at the highest tested compound concentration: without BSA/TCEP
SARS-CoV-2 nsp13 [3] = target: T1, SARS-CoV-2 nsp13; settings: for impact of DTT on inhibition of unwinding activity: presence or absence of 1 mM DTT
in vitro = assay type: cell-based, African green monkey; settings: African green monkey, with CP100356, 2 μM
SARS-CoV-2 = test: microbe, parasite or virus in culture; assay type: cell-based; settings: for EC50: Severe acute respiratory syndrome coronavirus 2, Vero, read-out: SARS-CoV-2 EC50
Vero E6-GFP cells = test: in vitro; assay type: cell-based, African green monkey; settings: read-out: Vero E6-GFP CC50; cell viability, 2 μM CP100356
SARS-CoV-2 nsp13 [4] = target: T1, SARS-CoV-2 nsp13; settings: read-out: NTPase activity IC50; cited from earlier work
[5] = unwinding IC50, without BSA/TCEP
[6] = ATPase IC50, without BSA/TCEP, no nucleic acid
[7] = unwinding BSA-TCEP IC50, 10 μg/mL BSA and 180 μM TCEP
[8] = ATPase BSA-TCEP-polyrA IC50, BSA, TCEP and poly(A) ssRNA

For `Oc1ccc(/C=C/c2cc(O)cc(O)c2)cc1` [resveratrol], the IC50 (SARS-CoV-2 nsp13 [1]; [5]) was over 30 µM, the IC50 (SARS-CoV-2 nsp13 [2]; [6]) was over 30 µM and the “ATPase, percentage of control at the highest tested compound concentration” value (shortened to “ATPase, percentage of control”) (SARS-CoV-2 nsp13 [2]) was 98%. The “unwinding, percentage of control at the highest tested compound concentration” value (shortened to “unwinding, percentage of control”) (SARS-CoV-2 nsp13 [3]; without BSA/TCEP) was 64%.

In the case of `O=c1cc(-c2ccc(O)cc2)oc2cc(O[C@@H]3O[C@H](CO)[C@@H](O)[C@H](O)[C@H]3O)cc(O)c12` [apigenin-7-O-glucoside], the IC50 (SARS-CoV-2 nsp13 [1]; [5]) is reported as over 30 µM, the IC50 (SARS-CoV-2 nsp13 [2]; [6]) is reported as over 30 µM and the “ATPase, percentage of control” value (SARS-CoV-2 nsp13 [2]) is reported as 99%. For the same molecule, the “unwinding, percentage of control” value (SARS-CoV-2 nsp13 [3]; without BSA/TCEP) was 100%.

With `COc1c(O)cc(O)c2c(=O)cc(-c3ccccc3)oc12` [wogonin] the IC50 (SARS-CoV-2 nsp13 [1]; [7]) was 74.9 ± 8.3 µM, the IC50 (SARS-CoV-2 nsp13 [1]; [5]) was 24.9 ± 5.5 µM and the IC50 (SARS-CoV-2 nsp13 [2]; [8]) was over 30 µM. The IC50 (SARS-CoV-2 nsp13 [2]; [6]) was over 30 µM and the “ATPase, percentage of control” value (SARS-CoV-2 nsp13 [2]) was 95%.

Molecule `O=c1c(O)c(-c2ccc(O)cc2)oc2cc(O)cc(O)c12` [kaempferol] has a CC50 at 72 h (in vitro) of over 100 µM, a viability at 72 h (in vitro) of 100% and an IC50 (SARS-CoV-2 nsp13 [1]; [7]) of 19 ± 2.1 µM. For the same molecule, the IC50 (SARS-CoV-2 nsp13 [2]; [8]) was over 30 µM, the IC50 (SARS-CoV-2 nsp13 [2]; [6]) was over 30 µM and the “ATPase, percentage of control” value (SARS-CoV-2 nsp13 [2]) was 83%. The EC50 (SARS-CoV-2) was over 100 µM, the “SARS-CoV-2, percentage of control at the highest tested compound concentration” value (“SARS-CoV-2, percentage of control” below) (SARS-CoV-2) was >100 (100%) and the “impact of DTT on inhibition of unwinding activity” value (SARS-CoV-2 nsp13 [3]) was “equally active in the presence and absence of DTT”. For the same molecule, the “mode of inhibition of unwinding activity” value (SARS-CoV-2 nsp13 [3]; versus ATP) was “noncompetitively versus ATP” and the “unwinding IC50 range in words” value (SARS-CoV-2 nsp13 [3]; without BSA/TCEP) was “nanomolar range”.

`O=c1c(O)c(-c2ccc(O)c(O)c2)oc2cc(O)cc(O)c12` [quercetin] showed a CC50 at 72 h (in vitro) of over 100 µM, a viability at 72 h (in vitro) of 100% and an EC50 (SARS-CoV-2) of over 100 µM.

In the case of `O=C(O)c1cc(O)c(O)c(O)c1` [gallic acid], the IC50 (SARS-CoV-2 nsp13 [1]; [5]) is reported as over 30 µM, the IC50 (SARS-CoV-2 nsp13 [2]; [6]) is reported as over 30 µM and the “ATPase, percentage of control” value (SARS-CoV-2 nsp13 [2]) is reported as 92%. For the same molecule, the “unwinding, percentage of control” value (SARS-CoV-2 nsp13 [3]; without BSA/TCEP) was 89%.

With `O=c1c(O)c(-c2cc(O)c(O)c(O)c2)oc2cc(O)cc(O)c12` [myricetin] the CC50 at 72 h (in vitro) was over 100 µM, the viability at 72 h (in vitro) was 100% and the “ATPase, percentage of control” value (SARS-CoV-2 nsp13 [2]) was 87%. The EC50 (SARS-CoV-2) was over 100 µM, the “SARS-CoV-2, percentage of control” value (SARS-CoV-2) was >100 (100%) and the “impact of DTT on inhibition of unwinding activity” value (SARS-CoV-2 nsp13 [3]) was “equally active in the presence and absence of DTT”.

With `O=c1cc(-c2ccccc2)oc2cc(O)c(O)c(O)c12` [baicalein] the CC50 at 72 h (in vitro) was over 100 µM, the viability at 72 h (in vitro) was 100% and the “ATPase, percentage of control” value (SARS-CoV-2 nsp13 [2]) was 94%. For the same molecule, the EC50 (SARS-CoV-2) was over 100 µM and the “SARS-CoV-2, percentage of control” value (SARS-CoV-2) was >100 (100%).

`CC(C)C[C@H](NC(=O)OCc1ccccc1)C(=O)N[C@@H](CC1CCNC1=O)C(O)S(=O)(=O)O` (stereo partly shown) [GC376, reference compound] gave a CC50 (Vero E6-GFP cells) of over 100 µM.

In the case of `COc1ccc2cc1Oc1ccc(cc1)C[C@H]1c3c(cc4c(c3Oc3cc5c(cc3OC)CCN(C)[C@@H]5C2)OCO4)CCN1C` [cepharanthine], the IC50 (SARS-CoV-2 nsp13 [4]) is given as 400 µM.

For `COc1cc(O)c2c(=O)c(-c3ccc(O)cc3)coc2c1` [prunetin], the CC50 at 72 h (in vitro) was over 100 µM, the viability at 72 h (in vitro) was 100% and the IC50 (SARS-CoV-2 nsp13 [1]; [7]) was over 100 µM. For the same molecule, the IC50 (SARS-CoV-2 nsp13 [1]; [5]) was 11.5 ± 1.7 µM, the IC50 (SARS-CoV-2 nsp13 [2]; [8]) was over 30 µM and the IC50 (SARS-CoV-2 nsp13 [2]; [6]) was over 30 µM. The “ATPase, percentage of control” value (SARS-CoV-2 nsp13 [2]) was 97%, the EC50 (SARS-CoV-2) was over 100 µM and the “SARS-CoV-2, percentage of control” value (SARS-CoV-2) was >100 (100%).

For kaempferol-3-O-rutinoside, the “ATPase, percentage of control” value (SARS-CoV-2 nsp13 [2]) was 95% and the “unwinding, percentage of control” value (SARS-CoV-2 nsp13 [3]; without BSA/TCEP) was 71%.

In the case of `COc1ccc(-c2cc(=O)c3c(O)cc(O)cc3o2)cc1O` [diosmetin], the “ATPase, percentage of control” value (SARS-CoV-2 nsp13 [2]) is reported as 92%, the EC50 (SARS-CoV-2) is reported as over 100 µM and the “SARS-CoV-2, percentage of control” value (SARS-CoV-2) is reported as >100 (100%).

With `O=C1c2c(O)cc(O)cc2O[C@H](c2cc(O)c(O)c(O)c2)[C@H]1O` [dihydro-myricetin] the “ATPase, percentage of control” value (SARS-CoV-2 nsp13 [2]) was 100%.

With `C[C@@H]1O[C@@H](OC[C@H]2O[C@@H](Oc3c(-c4ccc(O)c(O)c4)oc4cc(O)cc(O)c4c3=O)[C@H](O)[C@@H](O)[C@@H]2O)[C@H](O)[C@H](O)[C@H]1O` [rutin] the “ATPase, percentage of control” value (SARS-CoV-2 nsp13 [2]) was 96% and the “unwinding, percentage of control” value (SARS-CoV-2 nsp13 [3]; without BSA/TCEP) was 75%.
